From patent US20160018400A1, “DIAGNOSTIC AND PROGNOSTIC BIOMARKERS FOR PROSTATE CANCER AND OTHER DISORDERS” (CANCER RESEARCH TECHNOLOGY LIMITED, priority 2013, published 2016)

Experiments:
VPS13A = VPS13A protein expression in LNCaP cells after calcium modifiers (SDS-PAGE / western blot); assay type: cell-based; details: LNCaP cells treated for 8 hours with 10 μM; lysates probed for VPS13A and tubulin
Protocol: Non-targeting control LNCaP cells or siVPS13A cells were treated for 8 hours with 10 μM BAPTA (B), calcimycin (Cal) or control (C). Protein lysates were separated by SDS-PAGE and probed for VPS13A and tubulin.
Cells were fixed and stained as before using anti-VPS13A antibody (1:50, Human Protein Atlas) and LAMP2 antibody (1:500, BD Biosciences) (8). Cells were imaged using Alexafluor 594 and 488 secondary antibodies (Molecular Probes) and mounted with DAPI. All images were obtained using a Nikon Eclipse confocal microscope using a 100× objective. For calcium modifying experiments, LNCaP cells were grown as before to ˜50% confluence before being treated for 8 hours with 10 μM of the calcium ionophore, calcimycin (Invitrogen) or 10 μM of the calcium chelating agent 1,2-bis(o-aminophenoxy)ethane-N,N,N′,N′-tetraacetic acid (BAPTA) (Invitrogen) (Whitaker et al., 2007).
Protein lysates were produced as described (8) and separated by SDS-PAGE before blotting for VPS13A (1:1000, Human Protein Atlas), FAK (1:1000, Cell Signaling Technology), pTyr397-FAK (1:1000, Cell Signaling Technology) or tubulin (1:2000, Abcam).

LNCaP cells = assay: Confocal microscopy of VPS13A vesicle association/fusion with LAMP2-positive lysosomes; assay type: cell-based
Protocol: FIG. […] The cells were then fixed and stained for LAMP2 and VPS13A. Using the 100× lens, the number of lysosomes in 10 fields of view were counted. Then the number of VPS13A fusion events was counted in the same field of view. A fusion event was classed as a VPS13A vesicle touching or integrated into a LAMP2 positive lysosome. *Data are shown normalised to the number of lysosomes in each field of view. P-values were calculated using a Mann-Whitney 2-tailed t-test.
Cells were fixed and stained as before using anti-VPS13A antibody (1:50, Human Protein Atlas) and LAMP2 antibody (1:500, BD Biosciences) (8). Cells were imaged using Alexafluor 594 and 488 secondary antibodies (Molecular Probes) and mounted with DAPI. All images were obtained using a Nikon Eclipse confocal microscope using a 100× objective. […]

Row | SMILES | intracellular levels of VPS13A (VPS13A protein expression) (VPS13A) | VPS13A vesicle integration into the lysosome membrane (LNCaP cells; cells treated with bafilomycin, LAMP2 staining) | number of VPS13A vesicles that associated with lysosomes (fusion events, normalised to number of lysosomes) (LNCaP cells; LNCaP cells, LAMP2 and VPS13A staining, p=0.0004)
1 | O=C(O)CN(CC(=O)O)c1ccccc1OCCOc1ccccc1N(CC(=O)O)CC(=O)O [BAPTA, 1,2-bis(o-aminophenoxy)ethane-N,N,N′,N′-tetraacetic acid] | no significant change in VPS13A expression | – | –
2 | CO/C1=C\C(C)=C\[C@@H](C)[C@@H](O)[C@@H](C)C/C(C)=C/C=C/[C@H](OC)[C@@H]([C@@H](C)[C@@H](O)[C@H](C)[C@@]2(O)C[C@@H](O)[C@H](C)[C@@H](C(C)C)O2)OC1=O [bafilomycin] | – | VPS13A vesicles are seen integrated into the lysosome membrane | –
3 | CNc1ccc2oc(C[C@H]3O[C@@]4(CC[C@H]3C)O[C@H]([C@H](C)C(=O)c3ccc[nH]3)[C@H](C)C[C@H]4C)nc2c1C(=O)O [calcimycin] | increase in the intracellular levels of VPS13A | – | highly significant decrease
